Data published in patent US20240385200A1, “COMPOSITIONS AND METHODS OF DETERMINING PH AND POTASSIUM CONCENTRATION IN SAMPLES” (The University of Chicago, priority 2023, published 2024).

System: TGN-resident K^+ channels
Details: UT HEK 293T cells; TEA 10 mM, 10 min; resting ~102 mM
Protocol: EE and TGN pH and [K^+] measurements were carried out using pHlicKer^EE/TGN in HEK 293T cells transfected with hMSR1 and scFv-furin respectively. For EEs, HEK 293T cells were pulsed with 250 nM pHlicKer^EE for 10 min and chased for 10 min. For TGN, HEK 293T cells were pulsed with 250 nM pHlicKer^TGN for 90 min and chased for 90 min. Cells were washed with 1×PBS three times and then imaged. For recycling endosomes, HEK 293T cells were pulsed with 250 nM pHlicKer^RE for 15 min and chased for 30 min. Cells were washed with 1×PBS three times and then imaged using a widefield microscope.
Calculating pH-corrected [K^+] in early endosomes, trans-Golgi network, and recycling endosomes. To correct for pH and obtain K^+ values, the Kd of pHlicKer in single endosomes was calculated based on the Kd calibration plot versus pH. The pH of the organelle was measured from the D/A values calibrated across pH 5.5-7.0. Donor (D) and acceptor (A) images were background subtracted by drawing a region of interest outside the cells. The D image was duplicated, and a threshold was set to create a binary mask. Background-subtracted D and A images were then multiplied with the binary mask to get processed D and A images.

Q: How did the “[K+]TGN” value turn out when `CC[N+](CC)(CC)CC.[Cl-]` [TEA, tetraethyl ammonium chloride] was run?
A: Its value is ~73 mM.
